Laboratory results published in paper PMC7794397, “Curbing gastrointestinal infections by defensin fragment modifications without harming commensal microbiota” (Communications Biology, 2021).
Read-outs that look alike come from different tables or passages of the source. Residues, ends and D or L forms follow the SMILES beside them. *: point of attachment. Palmitoyl = CCCCCCCCCCCCCCCC(=O)*; AEEA = NCCOCCOCC(=O)O

Key:
S. aureus NCTC8325 [1] = assay: Bacterial pore formation (SYTO9/propidium iodide); assay type: cell-based; conditions: 37.5 µM Pam-3 (4x MIC), 10 min; Syto9 and propidium iodide
Description: Pore formation was monitored using the Live/Dead BacLight bacterial viability kit (Molecular Probes)[60]. […] Samples were taken after 10 min of peptide treatment, then 0.2 µl of a 1:1 mixture of SYTO9 and propidium iodide (PI) was added and further incubated for 15 min at RT in the dark. […] Images were acquired with an Orca Flash 4.0 V2 camera (Hamamatsu), C Plan-Apo 63x/1.4 Oil DIC and alpha Plan-Apochromat 100x/1.46 Oil Ph3 objectives (Zeiss) and processed using the Zen software package (Zeiss).

[2] = test system: multidrug resistant bacteria belonging to the ESKAPE pathogen panel; assay type: cell-based
Description: Bactericidal activity was assessed by broth microdilution assay. […] After incubation, 100 µl of 6% TSB (w/v) were added and absorbance was measured at 600 nm (Tecan, Switzerland) and monitored for 18 h. Afterward, 100 µl per well were plated on LB agar to determine the numbers of viable bacteria microbiologically. Bactericidal activity is expressed as the LC99.9, the lowest concentration that killed ≥99.9 % of bacteria.

P. aeruginosa PAO1 = assay: Treatment of established biofilms; assay type: cell-based; design: viable bacteria in biofilm: unit not given here; conditions: for viable bacteria in biofilm: 24 h old biofilm, 1 h treatment
Description: Then, planktonic bacteria were removed by two wash steps with PBS. […] Afterward, adherent bacteria in each well were resuspended, and the number of viable bacteria was determined microbiologically. […] The biofilm degradation assay was performed in agreement with the original report describing this method first.

[3] = test system: several pathogenic bacteria; assay: Radial diffusion assay, all tested strains; assay type: cell-based
Description: Antimicrobial activity was analyzed by radial diffusion assay. Log-phase bacteria were cultivated for up to 18 h in TSB (TSB, Becton Dickinson, USA), washed and diluted to 4 × 10^6 CFU in 10 ml agar. Bacteria were incubated in 10 ml of 10 mM sodium phosphate, pH 7.4, containing 0.3 mg/ml of TSB powder and 1% (w/v) low EEO-agarose (AppliChem). 1 µg of each lipopeptide was pipetted into punched wells in a final volume of 4 µl and diffused into the gel for 3 h at 37 °C. After that, a nutrient-rich gel with 6% TSB (w/v) and 1% agarose in 10 mM sodium phosphate buffer was poured on top of the first gel and incubated for up to 24 h at 37 °C. Then the diameter of inhibition zones was measured.

[4] = test system: B. subtilis ypuA promoter; assay: ypuA promoter luciferase reporter strain (cell envelope stress); assay type: cell-based
Description: A specific bacterial reporter strain with the genetic background of Bacillus subitilis 1S34, carrying the promoter of the ypuA gene, fused to the firefly luciferase reporter gene, was used to identify cell envelope-related damage caused by treatment with antimicrobial compounds[31]. The assay was carried out in agreement with former reports describing this method[20],[59]. Bacteria were cultured to an OD600 of 0.9 in LB broth with 5 µg/ml erythromycin at 37 °C and diluted to an OD600 of 0.02. Serial peptide dilutions (0.15–150 µM) were prepared in a microtiter plate and incubated with the adjusted bacterial suspension at 37 °C for 1 h. Subsequently, citrate buffer (0.1 M, pH 5) containing 2 mM luciferin (Iris Biotech, Germany) was added and luminescence was measured using a microplate reader (Tecan, Switzerland).

S. Typhimurium DSM554 = conditions: for Fold change in MIC: relative to MIC of first passage, Mean
Description: Development of resistance to the peptides was assessed with S. aureus and S. Typhimurium. […] Bacteria were cultured overnight at 37 °C at 150 rpm in TSB. Bacteria were washed twice with 10 mM sodium phosphate buffer containing 1% (w/v) TSB. […] After incubation, 100 µl of 6% TSB (w/v) was added and plates incubated in a humidified atmosphere for 21 h at 37 °C and 150 rpm.
The MIC, the lowest concentration of peptide/antibiotic that caused a lack of visible bacterial growth, was determined for each bacterial species. […] This was repeated for 25 passages.

S. aureus NCTC8325 [5] = assay: Transmission and scanning electron microscopy; assay type: cell-based; conditions: 37.5 µM Pam-3 (4x MIC), 30 min
Description: As a control, bacteria were exposed to 0.01% acetic acid. Afterward bacteria were fixed in Karnovsky’s reagent.
For transmission electron microscopy (TEM), bacteria were high-pressure frozen (HPF Compact 03, Engineering Office M. Wohlwend GmbH) in capillaries, freeze-substituted (AFS2, Leica Microsystems) with 2% OsO4 and 0.4% uranyl acetate in acetone as substitution medium and embedded in EPON. Ultrathin sections were stained with uranyl acetate and lead citrate and analyzed with a Tecnai Spirit (Thermo Fisher Scientific) operated at 120 kV.
For scanning electron microscopy (SEM), bacteria were washed in PBS and finally fixed with 1% OsO4 on ice for 1 h. Next, samples were prepared on polylysin-coated coverslips, dehydrated in a graduated series to 100% ethanol and critical point dried (Polaron) with CO2. Finally, samples were sputter-coated with a 3 nm thick layer of platinum (Safematic CCu-010) and examined with a Hitachi Regulus 8230 field emission scanning electron microscope (Hitachi) at an accelerating voltage of 5 kV.

## CCCCCCCCCCCCCCCC(=O)NCCOCCOCC(=O)N[C@@H](CCCNC(=N)N)C(=O)NCC(=O)N[C@@H](CCCCN)C(=O)N[C@@H](C)C(=O)N[C@@H](CCCCN)C(=O)N[C@@H](CS)C(=O)N[C@@H](CS)C(=O)N[C@@H](CCCCN)C(=O)O [Pam-3] ({Palmitoyl-AEEA}-RGKAKCCK-OH; C-terminus assumed)
S. aureus NCTC8325 [1]
  pore formation (in words): strong influx of PI
[2]; 18 different bacteria, three experiments each
  effective concentrations (LC99.9) across the panel: 4.69 to 18.75 µM
[2]; 18 different bacteria, three experiments each, peer review file
  overall measured mean effective concentration: 9.38 µM
[2]; broth microdilution, ESKAPE panel
  bactericidal activity (in words): highly effective
P. aeruginosa PAO1; 300 µM, within 1 h, Kruskal–Wallis p = 0.0074
  elimination of bacteria in biofilms (in words): eliminated
P. aeruginosa PAO1; 9.375 µM Pam-3, experiment 1
  viable bacteria in biofilm: 1541667
P. aeruginosa PAO1; 9.375 µM Pam-3, experiment 2
  viable bacteria in biofilm: 3730000
P. aeruginosa PAO1; 9.375 µM Pam-3, experiment 3
  viable bacteria in biofilm: 2210000
P. aeruginosa PAO1; 18.75 µM Pam-3, experiment 1
  viable bacteria in biofilm: 800000
P. aeruginosa PAO1; 18.75 µM Pam-3, experiment 2
  viable bacteria in biofilm: 125000
P. aeruginosa PAO1; 18.75 µM Pam-3, experiment 3
  viable bacteria in biofilm: 1510000
P. aeruginosa PAO1; 37.5 µM Pam-3, experiment 1
  viable bacteria in biofilm: 70000
P. aeruginosa PAO1; 37.5 µM Pam-3, experiment 2
  viable bacteria in biofilm: 21111
P. aeruginosa PAO1; 37.5 µM Pam-3, experiment 3
  viable bacteria in biofilm: 362889
P. aeruginosa PAO1; 75 µM Pam-3, experiment 1
  viable bacteria in biofilm: 1100
P. aeruginosa PAO1; 75 µM Pam-3, experiment 2
  viable bacteria in biofilm: 67067
P. aeruginosa PAO1; 75 µM Pam-3, experiment 3
  viable bacteria in biofilm: 5525
P. aeruginosa PAO1; 150 µM Pam-3, experiment 1
  viable bacteria in biofilm: 333
P. aeruginosa PAO1; 150 µM Pam-3, experiment 2
  viable bacteria in biofilm: 433
P. aeruginosa PAO1; 150 µM Pam-3, experiment 3
  viable bacteria in biofilm: 167
P. aeruginosa PAO1; 300 µM Pam-3, 1 = no growth, experiment 1
  viable bacteria in biofilm: 1
P. aeruginosa PAO1; 300 µM Pam-3, 1 = no growth, experiment 2
  viable bacteria in biofilm: 1
P. aeruginosa PAO1; 300 µM Pam-3, 1 = no growth, experiment 3
  viable bacteria in biofilm: 1
[3]
  antimicrobial activity (in words): potent inhibition
[4]
  activation of the ypuA promoter: 2 fold
[4]; 0.031x MIC Pam-3, 1 h, experiment 1
  ypuA promoter activation (relative to untreated = 1): 1.05
[4]; 0.031x MIC Pam-3, 1 h, experiment 2
  ypuA promoter activation (relative to untreated = 1): 1.15
[4]; 0.031x MIC Pam-3, 1 h, experiment 3
  ypuA promoter activation (relative to untreated = 1): 1.17
[4]; 0.062x MIC Pam-3, 1 h, experiment 1
  ypuA promoter activation (relative to untreated = 1): 1.16
[4]; 0.062x MIC Pam-3, 1 h, experiment 2
  ypuA promoter activation (relative to untreated = 1): 1.27
[4]; 0.062x MIC Pam-3, 1 h, experiment 3
  ypuA promoter activation (relative to untreated = 1): 1.36
[4]; 0.125x MIC Pam-3, 1 h, experiment 1
  ypuA promoter activation (relative to untreated = 1): 1.38
[4]; 0.125x MIC Pam-3, 1 h, experiment 2
  ypuA promoter activation (relative to untreated = 1): 1.48
[4]; 0.125x MIC Pam-3, 1 h, experiment 3
  ypuA promoter activation (relative to untreated = 1): 1.76
[4]; 0.25x MIC Pam-3, 1 h, experiment 1
  ypuA promoter activation (relative to untreated = 1): 2.12
[4]; 0.25x MIC Pam-3, 1 h, experiment 2
  ypuA promoter activation (relative to untreated = 1): 2
[4]; 0.25x MIC Pam-3, 1 h, experiment 3
  ypuA promoter activation (relative to untreated = 1): 2.57
[4]; 0.5x MIC Pam-3, 1 h, experiment 1
  ypuA promoter activation (relative to untreated = 1): 0.23
[4]; 0.5x MIC Pam-3, 1 h, experiment 2
  ypuA promoter activation (relative to untreated = 1): 0.18
[4]; 0.5x MIC Pam-3, 1 h, experiment 3
  ypuA promoter activation (relative to untreated = 1): 0.26
[4]; 1x MIC Pam-3, 1 h, experiment 1
  ypuA promoter activation (relative to untreated = 1): 0
[4]; 1x MIC Pam-3, 1 h, experiment 2
  ypuA promoter activation (relative to untreated = 1): 0
[4]; 1x MIC Pam-3, 1 h, experiment 3
  ypuA promoter activation (relative to untreated = 1): 0.02
[4]; 2x MIC Pam-3, 1 h, experiment 1
  ypuA promoter activation (relative to untreated = 1): 0
[4]; 2x MIC Pam-3, 1 h, experiment 2
  ypuA promoter activation (relative to untreated = 1): 0
[4]; 2x MIC Pam-3, 1 h, experiment 3
  ypuA promoter activation (relative to untreated = 1): 0
S. Typhimurium DSM554; Day (passage) 0
  Fold change in MIC: 1.0
S. Typhimurium DSM554; Day (passage) 1
  Fold change in MIC: 0.7
S. Typhimurium DSM554; Day (passage) 2
  Fold change in MIC: 0.5
S. Typhimurium DSM554; Day (passage) 3
  Fold change in MIC: 0.7
S. Typhimurium DSM554; Day (passage) 4
  Fold change in MIC: 0.7
S. Typhimurium DSM554; Day (passage) 5
  Fold change in MIC: 0.7
S. Typhimurium DSM554; Day (passage) 6
  Fold change in MIC: 0.7
S. Typhimurium DSM554; Day (passage) 7
  Fold change in MIC: 0.8
S. Typhimurium DSM554; Day (passage) 8
  Fold change in MIC: 0.7
S. Typhimurium DSM554; Day (passage) 9
  Fold change in MIC: 0.7
S. Typhimurium DSM554; Day (passage) 10
  Fold change in MIC: 1.3
S. Typhimurium DSM554; Day (passage) 11
  Fold change in MIC: 1.2
S. Typhimurium DSM554; Day (passage) 12
  Fold change in MIC: 0.7
S. Typhimurium DSM554; Day (passage) 13
  Fold change in MIC: 0.8
S. Typhimurium DSM554; Day (passage) 14
  Fold change in MIC: 0.7
S. Typhimurium DSM554; Day (passage) 15
  Fold change in MIC: 0.375
S. Typhimurium DSM554; Day (passage) 16
  Fold change in MIC: 0.7
S. Typhimurium DSM554; Day (passage) 17
  Fold change in MIC: 1.0
S. Typhimurium DSM554; Day (passage) 18
  Fold change in MIC: 0.8
S. Typhimurium DSM554; Day (passage) 19
  Fold change in MIC: 0.7
S. Typhimurium DSM554; Day (passage) 20
  Fold change in MIC: 0.5
S. Typhimurium DSM554; Day (passage) 21
  Fold change in MIC: 0.7
S. Typhimurium DSM554; Day (passage) 22
  Fold change in MIC: 1.0
S. Typhimurium DSM554; Day (passage) 23
  Fold change in MIC: 0.5
S. Typhimurium DSM554; Day (passage) 24
  Fold change in MIC: 0.5
S. Typhimurium DSM554; Day (passage) 25
  Fold change in MIC: 0.5
S. Typhimurium DSM554; continuous serial passages
  emergence of resistant isolates (in words): no resistant S. Typhimurium isolates emerged
S. aureus NCTC8325 [5]
  bacterial morphology, TEM (in words): strong cell envelope damage with disrupted membranes and pores in most of the cells
